The values below come from patent US5310752A, “Site specific alkylating agents” (priority 1986, dated 1994).

In assay [1] the test system is P388 leukemia cells. The assay is described as follows: in vitro cytotoxicity, P388 leukemia cells, 48 hours treatment. The class given is cell-based, murine. The note with it: for IC50: Mus musculus, read-out: ID50 P388. On the procedure: (§1) The in vitro antitumor activity was evaluated by cytotoxicity studies carried out on murine L1210 leukemia cells, L-PAM resistance leukemia cells and P388 leukemia cells, as well as on HeLa cells. Cells were derived from in vivo tumors and established in cell culture. Cells were used until the tenth passage. Cytotoxicity was determined by counting surviving cells after 4 hours treatment and 48 hours growth in drug-free medium. For HeLa cells the colony inhibition test according to Cancer Chemother. Pharmacol. 1:249-254, 1978, was used. The percentage of cell growth in the treated cultures was compared with that of controls. ID50 values (doses inhibiting 50% of the cellular growth in respect to controls) were calculated on dose-response curves.
^2) Cytotoxicity evaluated after 48 hours treatment;

For assay [2], the system named is L1210/LPAM. The assay is described as follows: in vitro cytotoxicity, L-PAM resistance leukemia cells (L1210/LPAM), 4 hours treatment. The class given is cell-based, murine. Conditions: for IC50: Mus musculus, L1210/LPAM, read-out: ID50 L1210/LPAM. On the procedure: as §1
(§2) ^1) Cytotoxicity evaluated after 4 hours treatment;

In assay [3] the test system is HeLa cells. The assay is described as follows: colony inhibition test, HeLa cells, 24 hours treatment. The class given is cell-based. The note with it: for IC50: Homo sapiens, read-out: ID50 HeLa. On the procedure: as §1
^3) Colony inhibition test carried out after 24 hours treatment.

Assay [4] concerns L1210 leukemia cells. The assay is described as follows: in vitro cytotoxicity, L1210 leukemia cells, 4 hours treatment. The class given is cell-based. Conditions: murine L1210 leukemia cells, cytotoxicity evaluated after 4 hours treatment. On the procedure: as §1, §2
The test system of assay [5] is DNA-AT sequences. Conditions: reported in literature; cited from earlier work.
Where [6] appears, read: P388 leukemia cells, cytotoxicity evaluated after 48 hours treatment.
The mark [7] stands for this setting: L-PAM resistance leukemia cells, cytotoxicity evaluated after 4 hours treatment.
[8] abbreviates: HeLa cells, colony inhibition test carried out after 24 hours treatment.

≈ marks a conversion by molar mass, not a printed value. Structures can show the parent of a compound that is named as a salt. Where two headings read alike, the source gives them in different places.

Take `Cn1cc(NC(=O)c2cc(NC(=O)c3cc(NC(=O)c4ccc(N(CCCl)CCCl)cc4)cn3C)cn2C)cc1C(=O)NCCC(=N)N` [FCE 24517, β-[1-methyl-4-[1-methyl-4-[1-methyl-4-[4-N,N-bis(2-chloro-ethyl)aminobenzene-1-carboxamido]pyrrole-2-carboxamido]pyrrole-2-carboxamido]pyrrole-2-carboxamido]propionamidine hydrochloride]: the IC50 in assay [1] (P388, 48 h) is 0.21 µg/mL; in assay [2] (4 h), 0.43 µg/mL; in assay [3] (HeLa, 24 h) it was 0.014 µg/mL.

On to `Cn1cc(NC(=O)c2cc(NC(=O)c3cc(NC(=O)c4cc(N(CCCl)CCCl)cs4)cn3C)cn2C)cc1C(=O)NCCC(=N)N` [FCE 24690, β-[1-methyl-4-[1-methyl-4-[1-methyl-4-[4-N,N-bis(2-chloro-ethyl)aminothiophen-2-carboxamido]pyrrole-2-carboxamido]pyrrole-2-carboxamido]pyrrole-2-carboxamido]propionamidine hydrochloride], for which the “ID50 P388” value in assay [1] (setting [6]) was 0.22 µg/mL. Moreover, the “ID50 L1210/LPAM” value in assay [2] (setting [7]) amounted to 0.985 µg/mL. Besides, the “ID50 L1210” value in assay [4] turned out to be 1.365 µg/mL. Besides, the “ID50 HeLa” value in assay [3] (setting [8]) amounted to 0.037 µg/mL.

For `Cn1cc(NC(=O)c2cc(NC(=O)c3cc(NC=O)cn3C)cn2C)cc1C(=O)NCCC(=N)N` [distamycin A, reference compound], the IC50 in assay [1] (setting [6]) was 25 µg/mL (≈ 51.9 µM); in assay [2] (setting [7]), 136 µg/mL (≈ 282 µM); in assay [4] (Mus musculus, read-out: ID50 L1210), 198 µg/mL (≈ 411 µM); in assay [3] (setting [8]), 3.9 µg/mL (≈ 8.1 µM). For the same compound, the “interaction with DNA-AT sequences” value in assay [5] is “interact reversibly and selectively with DNA-AT sequences interfering with both replication and trascription”.
